The test system of test [1] is Primary human T-cells. Briefly: Primary Human T-Cell Proliferation Assay Stimulated with IL-2 (CellTiter-Glo). As to conditions: read-out: IC50, Example 42. It is filed as cell-based. Summed up:
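IC50 derived from CellTiter-Glo ATP signal after 72 hours of IL-2-driven proliferation at 37° C. Cells: primary human T-cells from blood, stimulated beforehand 3-4 days on anti-CD3/anti-CD28 with IL-2, then rested from IL-2 before compound exposure in duplicate; IL-2-free wells served as unstimulated control.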

In test [2] the test system is up-regulation of ICAM-1 (CD54) by IFNγ in A549 lung epithelial cells. Kind of test: A549 Epithelial Line Stimulated with IFNγ (ICAM-1 surface expression, FACS). It is filed as cell-based, human. Particulars: ICAM-1 expression by FACS, read-out: IC50, Example 43. The method in brief: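 ICAM-1 (CD54) flow cytometry on live-gated A549 cells, geometric mean versus dose giving EC50. Cells received IFNγ at 75 ng/mL for 24 h after a 1 h compound pre-treatment spanning 30 μM to 14 nM in medium with 5% FBS and 0.3% DMSO.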
Background: A flow cytometer gives signals particle by particle.

Setting [3] is: primary human T-cells stimulated with IL-2, proliferation.
The mark [4] stands for this setting: Homo sapiens, T-cell, primary human T-cell proliferation stimulated with IL-2.
Setting [5] is: Homo sapiens, A549, A549 epithelial line stimulated with IFNγ.

pIC50: −log10 of the molar value. Where two headings read alike, the source gives them in different places.

In the case of `COc1ccc(CN2C(=O)C(C)Oc3ccc(Nc4nc(Nc5ccc(S(N)(=O)=O)cc5)ncc4F)cc32)cc1` (racemic) [Compound V-4, Racemic N2-(4-Aminosulphonylphenyl)-5-fluoro-N4-[2-methyl-3-oxo-4-(4-methoxybenzyl)-benz[1,4]oxazin-6-yl]-2,4-pyrimidinediamine], the pIC50 is 5.81 in test [1] (setting [3]) and 5.03 in test [2] (A549 cells stimulated with IFNγ).
For `COc1cc(Nc2nc(Nc3ccc(S(N)(=O)=O)cc3)ncc2F)cc(OCC#N)c1OC` [Compound I-1, N2-(4-Aminosulphonylphenyl)-N4-(3-cyanomethoxy-4,5-dimethoxyphenyl)-5-fluoro-2,4-pyrimidinediamine], the pIC50 in test [1] (setting [4]) is 5.00; in test [2] (setting [5]), 4.73.
For `COc1cc(Nc2nc(Nc3ccc(S(N)(=O)=O)cc3)ncc2F)ccc1OCC#N` [Compound I-45, N2-(4-Aminosulfonylphenyl)-N4-(4-cyanomethoxy-3-methoxyphenyl)-5-fluoro-2,4-pyrimidinediamine] the same measures were 6.08 and 4.77.
Turning to `COc1ccc(Nc2ncc(F)c(Nc3ccc(OCC#N)cc3)n2)cc1S(N)(=O)=O` [Compound I-56, N2-(3-Aminosulfonyl-4-methoxyphenyl)-N4-(4-cyanomethoxyphenyl)-5-fluoro-2,4-pyrimidinediamine], the results for the pIC50 in test [1] (setting [4]) and in test [2] (setting [5]) were 6.58 and 5.30, respectively.
For `Cc1cnc(Nc2cccc(S(N)(=O)=O)c2)nc1Nc1ccc(OCC#N)cc1` [Compound I-58, N2-(3-Aminosulfonylphenyl)-N4-(4-cyanomethoxyphenyl)-5-methyl-2,4-pyrimidinediamine] the same measures were 7.72 and 6.14.
The like results for `Cc1ccc(Nc2ncc(C)c(Nc3ccc(OCC#N)cc3)n2)cc1S(N)(=O)=O` [Compound I-59, N2-(3-Aminosulfonyl-4-methylphenyl)-N4-(4-cyanomethoxyphenyl)-5-methyl-2,4-pyrimidinediamine] were, in that order, 7.60 and 6.02.
The like results for `NC(=O)COc1ccc(Nc2nc(Nc3ccc(S(N)(=O)=O)cc3)ncc2F)cc1Cl` [Compound I-97, N4-(4-Aminocarbonylmethoxy-3-chlorophenyl)-N2-(4-aminosulfonylphenyl)-5-fluoro-2,4-pyrimidinediamine] were, in that order, 6.06 and 4.51.
With `NC(=O)COc1ccc(Nc2nc(Nc3cccc(S(N)(=O)=O)c3)ncc2F)cc1Cl` [Compound I-98, N4-(4-Aminocarbonylmethoxy-3-chlorophenyl)-N2-(3-aminosulfonylphenyl)-5-fluoro-2,4-pyrimidinediamine], the pIC50 in test [2] (setting [5]) is 4.43.
Same read-out and setting: next, `NC(=O)COc1ccc(Nc2nc(Nc3cccc(S(N)(=O)=O)c3)ncc2F)cc1F` [Compound I-101, N4-(4-Aminocarbonylmethoxy-3-fluorophenyl)-N2-(3-aminosulfonylphenyl)-5-fluoro-2,4-pyrimidinediamine]: 4.29.
On to `Cc1ccc(Nc2ncc(F)c(Nc3ccc(OCC(N)=O)c(F)c3)n2)cc1S(N)(=O)=O` [Compound I-102, N4-(4-Aminocarbonylmethoxy-3-fluorophenyl)-N2-(3-aminosulfonyl-4-methylphenyl)-5-fluoro-2,4-pyrimidinediamine], for which the pIC50 was 6.68 in test [1] (setting [4]) and 4.36 in test [2] (setting [5]).
For the compound `Cc1cnc(Nc2cccc(S(N)(=O)=O)c2)nc1Nc1ccc(OCC(N)=O)cc1` [Compound I-109, N4-(4-Aminocarbonylmethoxyphenyl)-N2-(3-aminosulfonylphenyl)-5-methyl-2,4-pyrimidinediamine], the negative logarithm of the IC50 (pIC50) is 6.69 in test [1] (setting [4]) and 4.59 in test [2] (setting [5]).
For `Cc1ccc(Nc2ncc(C)c(Nc3ccc(OCC(N)=O)cc3)n2)cc1S(N)(=O)=O` [Compound I-110, N4-(4-Aminocarbonylmethoxyphenyl)-N2-(3-aminosulfonyl-4-methylphenyl)-5-methyl-2,4-pyrimidinediamine] the same measures were 6.60 and 4.69.
For `Cc1cnc(Nc2cccc(S(N)(=O)=O)c2)nc1Nc1ccc(OCC(=O)N(C)C)c(Cl)c1` [Compound I-135, N2-(3-Aminosulfonylphenyl)-N4-(3-chloro-4-dimethylaminocarbonylmethoxyphenyl)-5-methyl-2,4-pyrimidinediamine] the same measures were 6.98 and 5.49.
The like results for `Cc1ccc(Nc2ncc(C)c(Nc3ccc(OCC(=O)N(C)C)c(Cl)c3)n2)cc1S(N)(=O)=O` [Compound I-136, N2-(3-Aminosulfonyl-4-methylphenyl)-N4-(3-chloro-4-dimethylaminocarbonylmethoxyphenyl)-5-methyl-2,4-pyrimidinediamine] were, in that order, 6.71 and 5.09.
On to `Cc1cnc(Nc2cccc(S(N)(=O)=O)c2)nc1Nc1ccc(OCC(=O)N(C)C)c(F)c1` [Compound I-138, N2-(3-Aminosulfonylphenyl)-N4-(4-dimethylaminocarbonylmethoxy-3-fluorophenyl)-5-methyl-2,4-pyrimidinediamine], for which the pIC50 in test [1] (setting [4]) was 6.65; in test [2] (setting [5]), 4.04.
For `Cc1ccc(Nc2ncc(C)c(Nc3ccc(OCC(=O)N(C)C)c(F)c3)n2)cc1S(N)(=O)=O` [Compound I-139, N2-(3-Aminosulfonyl-4-methylphenyl)-N4-(4-dimethylaminocarbonylmethoxy-3-fluorophenyl)-5-methyl-2,4-pyrimidinediamine] the same measures were 6.62 and 4.94.
For `Cc1cnc(Nc2ccc(Cl)c(S(N)(=O)=O)c2)nc1Nc1ccc(OCC(=O)N(C)C)c(Cl)c1` [Compound I-141, N2-(3-Aminosulfonyl-4-chlorophenyl)-N4-(3-chloro-4-dimethylaminocarbonylmethoxyphenyl)-5-methyl-2,4-pyrimidinediamine] the same measures were 6.17 and 4.81.
For `Cc1ccc(Nc2nc(Nc3cccc(S(N)(=O)=O)c3)ncc2F)cc1OCCN1CCOCC1` [Compound I-203, N2-(3-Aminosulfonylphenyl)-5-fluoro-N4-[4-methyl-3-(2-morpholinoethyloxy)phenyl]-2,4-pyrimidinediamine] the same measures were 6.17 and 5.24.
For `NS(=O)(=O)c1ccc(Nc2ncc(F)c(Nc3ccc(OCCN4CCOCC4)cc3)n2)cc1` [Compound I-205, N2-(4-Aminosulfonylphenyl)-5-fluoro-N4-[4-(2-morpholinoethyloxy)phenyl)-2,4-pyrimidinediamine], the pIC50 is 5.73 in test [1] (setting [4]) and 5.02 in test [2] (setting [5]).
Regarding `NS(=O)(=O)c1cccc(Nc2ncc(F)c(NCCc3ccc(-c4ccncc4)cc3)n2)c1` [III-76, N2-(3-Aminosulfonylphenyl)-5-fluoro-N4-[4-(4-pyridinyl)phenethyl]-2,4-pyrimidinediamine], in test [1] (setting [4]), the pIC50 is 6.87.
Same read-out and setting: the same measure for `Cc1ccc(Nc2ncc(F)c(NCCc3ccc(-c4ccncc4)cc3)n2)cc1S(N)(=O)=O` [III-77, N2-(3-Aminosulfonyl-4-methylphenyl)-5-fluoro-N4-[4-(4-pyridinyl)phenethyl]-2,4-pyrimidinediamine]: 6.68.
For the compound `NS(=O)(=O)c1cccc(Nc2ncc(F)c(Nc3ccc(Cn4cncn4)cc3)n2)c1` [III-100, N2-(3-Aminosulfonylphenyl)-5-fluoro-N4-{4-[1-(1,2,4-thazolyl)methyl]phenyl}-2,4-pyrimidinediamine], the pIC50 in test [1] (setting [3]) is 6.71.
The same measure, in the same setting: the same measure for `NS(=O)(=O)c1cccc(Nc2ncc(F)c(Nc3ccc(CN4CCOCC4)cc3)n2)c1` [III-103, N2-(3-Aminosulfonylphenyl)-5-fluoro-N4-(4-N-morpholinomethylenephenyl)-2,4-pyrimidinediamine]: 5.97.
On the same count and under the same terms, the same measure for `Cc1ccc(Nc2ncc(F)c(Nc3ccc(CN4CCOCC4)cc3)n2)cc1S(N)(=O)=O` [III-104, N2-(3-Aminosulfonyl-4-methylphenyl)-5-fluoro-N4-(4-N-morpholinomethylenephenyl)-2,4-pyrimidinediamine]: 5.92.
The same measure, in the same setting: the same measure for `COc1ccc(Nc2ncc(F)c(Nc3ccc(CN4CCSCC4)cc3)n2)cc1S(N)(=O)=O` [III-109, N2-(3-Aminosulfonyl-4-methyoxyphenyl)-5-fluoro-N4-(4-thiomorpholinomethylenephenyl)-2,4-pyrimidinediamine]: 6.60; for `NS(=O)(=O)c1cccc(Nc2ncc(F)c(Nc3ccc(CN4CCS(=O)(=O)CC4)cc3)n2)c1` [III-110, N2-(3-Aminosulfonylphenyl)-5-fluoro-N4-{4-[(1,1-dioxothiomorpholin-4-yl-)methyl]phenyl}-2,4-pyrimidinediamine]: 6.00.
`Cc1ccc(Nc2ncc(F)c(Nc3ccc(CN4CCS(=O)(=O)CC4)cc3)n2)cc1S(N)(=O)=O` [III-111, N2-(3-Aminosulfonyl-4-methylphenyl)-5-fluoro-N4-{4-[(1,1-dioxothiomorpholin-4-yl-)methyl]phenyl}-2,4-pyrimidinediamine]: in test [1] (setting [3]), the pIC50 is 6.03.
On the same count and under the same terms, the same measure for `CNS(=O)(=O)c1cc(Nc2ncc(F)c(Nc3cccc(-c4cnco4)c3)n2)ccc1C` [IV-4, 5-Fluoro-N2-[3-(N-methylaminosulfony)-4-methylphenyl]-N4-[3-(1,3-oxazol-5-yl)phenyl]-2,4-pyrimidinediamine]: 6.52.
Consider `CNS(=O)(=O)c1cc(Nc2ncc(F)c(Nc3ccc(-c4cnco4)cc3)n2)ccc1C` [IV-7, 5-Fluoro-N2-[3-(N-methylaminosulfony)-4-methylphenyl]-N4-[4-(1,3-oxazol-5-yl)phenyl]-2,4-pyrimidinediamine], for which the negative logarithm of the IC50 (pIC50) in test [1] (setting [3]) is 6.69.

By pIC50 is commonly meant the negative decadic logarithm of the IC50, by convention in mol/L.
